Paper PMC11272598, “RG7774 (Vicasinabin), an orally bioavailable cannabinoid receptor 2 (CB2R) agonist, decreases retinal vascular permeability, leukocyte adhesion, and ocular inflammation in animal models” (Frontiers in Pharmacology, 2024)

How the values were obtained:
Experiment in all cases: CEREP radioligand binding
5-HT7 (h) = 5-HT7 (h) (Homo sapiens, UniProt P34969); details: radioligand [^3H]-LSD
Excerpt: (§1) Supplement Table1.docx, table 3: Supplementary Table S3. RG7774 binding to non-CB1R/CB2R receptors, ion channels, transporters, and enzymes (CEREP, Celle l’Evescault, France; http://www.cerep.fr). | column: % inhibition of control SB (n = 2)

SKCa channel = details: radioligand [^125I]-apamin
Excerpt: as §1

BB (non-selective) = details: radioligand [^125I]-[Tyr^4]bombesin
Excerpt: as §1

M1 (h) = M1 (h) (Homo sapiens, UniProt P11229); details: radioligand [^3H]-pirenzepine
Excerpt: as §1

V1a (h) = V1a (h) (Homo sapiens, UniProt P37288); details: radioligand [^3H]-AVP
Excerpt: as §1

BZD (peripheral) = BZD (peripheral) (Rattus norvegicus, UniProt P16257); details: radioligand [^3H]-PK 11195
Excerpt: as §1

NK3 (h) = NK3 (h) (Homo sapiens, UniProt P29371); details: radioligand [^3H]-SR 142801
Excerpt: as §1

M4 (h) = M4 (h) (Homo sapiens, UniProt P08173); details: radioligand [^3H]-4-DAMP
Excerpt: as §1

5-HT6 (h) = 5-HT6 (h) (Homo sapiens, UniProt P50406); details: radioligand [^3H]-LSD
Sequence of 5-HT6 (h) (P50406 whole entry): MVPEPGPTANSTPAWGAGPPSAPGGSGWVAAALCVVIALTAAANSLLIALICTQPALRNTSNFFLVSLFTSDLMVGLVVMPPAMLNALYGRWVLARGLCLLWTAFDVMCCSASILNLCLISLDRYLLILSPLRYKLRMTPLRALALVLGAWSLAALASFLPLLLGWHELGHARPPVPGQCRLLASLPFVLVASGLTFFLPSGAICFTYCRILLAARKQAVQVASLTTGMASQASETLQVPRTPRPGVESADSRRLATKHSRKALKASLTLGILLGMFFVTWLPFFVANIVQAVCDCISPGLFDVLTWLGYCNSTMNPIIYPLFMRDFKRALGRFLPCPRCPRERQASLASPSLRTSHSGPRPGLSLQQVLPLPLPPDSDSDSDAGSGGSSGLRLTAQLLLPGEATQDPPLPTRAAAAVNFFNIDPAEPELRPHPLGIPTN
Excerpt: as §1

D5 = D5 (Homo sapiens, UniProt P21918); details: radioligand [^3H]-SCH 23390
Sequence of D5 (P21918 whole entry): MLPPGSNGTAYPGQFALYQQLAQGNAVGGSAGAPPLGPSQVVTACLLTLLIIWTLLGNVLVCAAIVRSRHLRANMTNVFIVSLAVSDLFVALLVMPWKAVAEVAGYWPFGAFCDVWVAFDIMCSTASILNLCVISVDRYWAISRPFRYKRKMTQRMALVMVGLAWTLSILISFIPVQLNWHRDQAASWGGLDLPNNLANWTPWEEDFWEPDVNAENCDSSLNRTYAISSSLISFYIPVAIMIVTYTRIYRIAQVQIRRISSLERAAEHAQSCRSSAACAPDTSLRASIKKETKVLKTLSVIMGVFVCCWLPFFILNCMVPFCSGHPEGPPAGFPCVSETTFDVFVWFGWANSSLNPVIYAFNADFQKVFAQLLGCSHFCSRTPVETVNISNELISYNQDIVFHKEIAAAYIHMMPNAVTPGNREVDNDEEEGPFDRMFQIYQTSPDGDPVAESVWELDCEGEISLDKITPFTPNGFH
Excerpt: as §1

EP4 (h) = EP4 (h) (Homo sapiens, UniProt P35408); details: radioligand [^3H]-PGE2
Excerpt: as §1

Cl- channel (GABA-gated) = details: radioligand [^35S]-TBPS
Excerpt: as §1

μ(MOP) (h) = μ(MOP) (h) (Homo sapiens, UniProt P35372); details: radioligand [^3H]-DAMGO
Excerpt: as §1

5-HT transporter (h) = 5-HT transporter (h) (Homo sapiens, UniProt P31645); details: radioligand [^3H]-imipramine
Sequence of 5-HT transporter (h) (P31645 whole entry): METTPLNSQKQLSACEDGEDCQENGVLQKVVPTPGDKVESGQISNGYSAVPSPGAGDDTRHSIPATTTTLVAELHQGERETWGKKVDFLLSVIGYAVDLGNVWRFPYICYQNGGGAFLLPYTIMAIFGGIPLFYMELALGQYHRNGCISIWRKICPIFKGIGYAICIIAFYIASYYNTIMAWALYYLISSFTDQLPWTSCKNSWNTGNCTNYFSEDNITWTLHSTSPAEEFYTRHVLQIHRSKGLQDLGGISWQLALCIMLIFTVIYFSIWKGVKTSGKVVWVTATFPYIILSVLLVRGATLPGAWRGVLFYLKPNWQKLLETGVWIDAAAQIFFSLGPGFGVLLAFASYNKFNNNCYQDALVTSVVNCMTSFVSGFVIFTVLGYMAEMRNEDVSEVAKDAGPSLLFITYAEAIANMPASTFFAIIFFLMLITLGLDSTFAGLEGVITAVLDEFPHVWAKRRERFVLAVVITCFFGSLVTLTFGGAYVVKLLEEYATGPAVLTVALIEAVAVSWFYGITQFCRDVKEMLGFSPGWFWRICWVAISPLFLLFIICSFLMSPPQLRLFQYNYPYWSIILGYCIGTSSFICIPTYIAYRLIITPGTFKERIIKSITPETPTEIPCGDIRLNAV
Excerpt: as §1

D1 (h) = D1 (h) (Homo sapiens, UniProt P21728); details: radioligand [^3H]-SCH 23390
Excerpt: as §1

CGRP (h) = CGRP (h) (Homo sapiens, UniProt O60894+Q16602); details: radioligand [^125I]-hCGRPα
Excerpt: as §1

D3 (h) = D3 (h) (Homo sapiens, UniProt P35462); details: radioligand [^3H]-methyl-spiperone
Excerpt: as §1

H1 (h) = H1 (h) (Homo sapiens, UniProt P35367); details: radioligand [^3H]-pyrilamine
Excerpt: as §1

D2S (h) = D2S (h) (Homo sapiens, UniProt P14416); details: radioligand [^3H]-methyl-spiperone
Excerpt: as §1

δ(DOP) (h) = δ(DOP) (h) (Homo sapiens, UniProt P41143); details: radioligand [^3H]-DADLE
Excerpt: as §1

PCP = details: radioligand [^3H]-TCP
Excerpt: as §1

sst (non-selective) = details: radioligand [^125I]-Tyr^11-somatostatin-14
Excerpt: as §1

Dopamine transporter (h) = Dopamine transporter (h) (Homo sapiens, UniProt Q01959); details: radioligand [^3H]-BTCP
Sequence of Dopamine transporter (h) (Q01959 whole entry): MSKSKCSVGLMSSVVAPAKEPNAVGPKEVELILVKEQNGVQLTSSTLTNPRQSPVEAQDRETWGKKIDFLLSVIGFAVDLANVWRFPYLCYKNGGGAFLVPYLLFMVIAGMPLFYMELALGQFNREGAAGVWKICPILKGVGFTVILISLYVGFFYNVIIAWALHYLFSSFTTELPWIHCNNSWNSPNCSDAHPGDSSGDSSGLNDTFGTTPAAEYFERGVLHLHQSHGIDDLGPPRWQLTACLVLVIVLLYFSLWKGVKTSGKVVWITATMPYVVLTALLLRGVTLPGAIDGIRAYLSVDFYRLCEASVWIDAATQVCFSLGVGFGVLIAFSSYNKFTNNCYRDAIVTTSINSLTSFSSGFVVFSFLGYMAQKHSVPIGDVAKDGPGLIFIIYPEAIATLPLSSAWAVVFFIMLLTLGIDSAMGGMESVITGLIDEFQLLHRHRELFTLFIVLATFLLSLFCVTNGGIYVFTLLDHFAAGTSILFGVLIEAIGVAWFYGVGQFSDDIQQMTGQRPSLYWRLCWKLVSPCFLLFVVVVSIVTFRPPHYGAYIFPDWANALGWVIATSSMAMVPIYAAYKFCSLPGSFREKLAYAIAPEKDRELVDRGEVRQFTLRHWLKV
Excerpt: as §1

IP (PGI2) (h) = IP (PGI2) (h) (Homo sapiens, UniProt P43119); details: radioligand [^3H]-iloprost
Excerpt: as §1

CCR1 = CCR1 (Homo sapiens, UniProt P32246); details: radioligand [^125I]-MIP-1α
Excerpt: as §1

GR (h) = GR (h) (Homo sapiens, UniProt P04150); details: radioligand [^3H]-dexamethasone
Excerpt: as §1

Beta 2 (h) = Beta 2 (h) (Homo sapiens, UniProt P07550); details: radioligand [^3H](-)CGP 12177
Sequence of Beta 2 (h) (P07550 whole entry): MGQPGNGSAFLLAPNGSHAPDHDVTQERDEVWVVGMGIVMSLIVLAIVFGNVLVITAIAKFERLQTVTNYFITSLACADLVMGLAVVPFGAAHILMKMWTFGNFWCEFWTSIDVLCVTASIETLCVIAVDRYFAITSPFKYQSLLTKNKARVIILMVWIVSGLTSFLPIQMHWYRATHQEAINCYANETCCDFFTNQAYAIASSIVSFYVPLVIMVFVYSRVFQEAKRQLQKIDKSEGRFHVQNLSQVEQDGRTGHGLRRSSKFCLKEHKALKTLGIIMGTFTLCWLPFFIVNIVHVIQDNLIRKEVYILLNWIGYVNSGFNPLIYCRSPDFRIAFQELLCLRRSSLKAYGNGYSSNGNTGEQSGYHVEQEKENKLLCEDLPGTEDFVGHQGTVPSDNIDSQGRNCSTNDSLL
Excerpt: as §1

AT1 (h) = AT1 (h) (Homo sapiens, UniProt P30556); details: radioligand [^125I]-[Sar^1,Ile^8]-AT-II
Sequence of AT1 (h) (P30556 whole entry): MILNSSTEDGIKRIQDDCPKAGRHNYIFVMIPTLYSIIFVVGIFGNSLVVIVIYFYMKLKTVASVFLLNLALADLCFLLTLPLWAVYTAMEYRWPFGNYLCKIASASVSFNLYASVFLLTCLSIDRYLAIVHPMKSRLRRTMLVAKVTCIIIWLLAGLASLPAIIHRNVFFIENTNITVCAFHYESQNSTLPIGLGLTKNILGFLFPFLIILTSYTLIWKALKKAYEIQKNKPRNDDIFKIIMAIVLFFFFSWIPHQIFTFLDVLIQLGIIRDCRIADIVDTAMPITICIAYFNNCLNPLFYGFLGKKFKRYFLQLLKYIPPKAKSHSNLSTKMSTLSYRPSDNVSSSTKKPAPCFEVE
Excerpt: as §1

CCK2 (CCKB) (h) = CCK2 (CCKB) (h) (Homo sapiens, UniProt P32239); details: radioligand [^125I]-CCK-8s
Sequence of CCK2 (CCKB) (h) (P32239 whole entry): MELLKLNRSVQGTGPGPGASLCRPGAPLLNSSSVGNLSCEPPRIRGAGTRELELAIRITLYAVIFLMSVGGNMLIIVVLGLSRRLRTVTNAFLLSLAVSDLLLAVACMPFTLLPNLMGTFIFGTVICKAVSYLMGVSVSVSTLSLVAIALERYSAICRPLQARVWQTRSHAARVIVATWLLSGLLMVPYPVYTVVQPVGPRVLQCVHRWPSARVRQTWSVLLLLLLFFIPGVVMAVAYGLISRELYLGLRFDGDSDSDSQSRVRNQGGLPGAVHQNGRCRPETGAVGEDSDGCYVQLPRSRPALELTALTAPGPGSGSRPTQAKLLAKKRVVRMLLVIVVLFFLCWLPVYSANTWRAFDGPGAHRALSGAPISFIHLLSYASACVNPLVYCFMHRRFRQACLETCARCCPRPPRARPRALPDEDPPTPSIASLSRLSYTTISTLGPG
Excerpt: as §1

M5 (h) = M5 (h) (Homo sapiens, UniProt P08912); details: radioligand [^3H]-4-DAMP
Excerpt: as §1

κ(KOP) = κ(KOP) (Rattus norvegicus, UniProt P34975); details: radioligand [^3H]-U 69593
Excerpt: as §1

CXCR2 = CXCR2 (Homo sapiens, UniProt P25025); details: radioligand [^125I]-IL-8
Excerpt: as §1

NOP (ORL1) (h) = NOP (ORL1) (h) (Homo sapiens, UniProt P41146); details: radioligand [^3H]-nociceptin
Excerpt: as §1

PPARγ (h) = PPARγ (h) (Homo sapiens, UniProt P37231); details: radioligand [^3H]-rosiglitazone
Sequence of PPARγ (h) (P37231 whole entry): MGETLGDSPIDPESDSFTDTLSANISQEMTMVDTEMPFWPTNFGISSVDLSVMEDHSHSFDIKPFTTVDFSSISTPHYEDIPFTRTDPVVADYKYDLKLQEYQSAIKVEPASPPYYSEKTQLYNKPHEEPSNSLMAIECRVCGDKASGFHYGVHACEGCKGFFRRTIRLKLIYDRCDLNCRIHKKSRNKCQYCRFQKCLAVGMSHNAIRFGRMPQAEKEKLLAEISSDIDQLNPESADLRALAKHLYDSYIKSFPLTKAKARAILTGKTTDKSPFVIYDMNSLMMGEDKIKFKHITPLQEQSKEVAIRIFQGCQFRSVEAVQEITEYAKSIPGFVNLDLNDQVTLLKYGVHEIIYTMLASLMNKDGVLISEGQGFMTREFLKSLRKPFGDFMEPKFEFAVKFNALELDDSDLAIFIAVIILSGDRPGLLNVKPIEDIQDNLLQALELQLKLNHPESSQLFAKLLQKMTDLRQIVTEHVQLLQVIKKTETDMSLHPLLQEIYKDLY
Excerpt: as §1

5-HT3 (h) = 5-HT3 (h) (Homo sapiens, UniProt P46098); details: radioligand [^3H]-BRL 43694
Excerpt: as §1

5-HT1A (h) = 5-HT1A (h) (Homo sapiens, UniProt P08908); details: radioligand [^3H]-8-OH-DPAT
Sequence of 5-HT1A (h) (P08908 whole entry): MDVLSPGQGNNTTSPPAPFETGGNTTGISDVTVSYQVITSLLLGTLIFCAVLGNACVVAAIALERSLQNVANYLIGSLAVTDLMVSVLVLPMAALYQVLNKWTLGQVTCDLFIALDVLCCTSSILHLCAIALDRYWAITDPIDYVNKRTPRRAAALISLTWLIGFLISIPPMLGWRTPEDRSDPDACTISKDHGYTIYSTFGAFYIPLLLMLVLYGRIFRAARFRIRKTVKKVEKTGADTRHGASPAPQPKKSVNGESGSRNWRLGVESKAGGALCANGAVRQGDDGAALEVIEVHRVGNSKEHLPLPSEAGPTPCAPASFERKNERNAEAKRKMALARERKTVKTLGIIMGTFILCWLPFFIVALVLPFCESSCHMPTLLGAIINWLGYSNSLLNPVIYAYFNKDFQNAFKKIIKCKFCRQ
Excerpt: as §1

VPAC1 (VIP1) (h) = VPAC1 (VIP1) (h) (Homo sapiens, UniProt P32241); details: radioligand [^125I]-VIP
Sequence of VPAC1 (VIP1) (h) (P32241 31-457): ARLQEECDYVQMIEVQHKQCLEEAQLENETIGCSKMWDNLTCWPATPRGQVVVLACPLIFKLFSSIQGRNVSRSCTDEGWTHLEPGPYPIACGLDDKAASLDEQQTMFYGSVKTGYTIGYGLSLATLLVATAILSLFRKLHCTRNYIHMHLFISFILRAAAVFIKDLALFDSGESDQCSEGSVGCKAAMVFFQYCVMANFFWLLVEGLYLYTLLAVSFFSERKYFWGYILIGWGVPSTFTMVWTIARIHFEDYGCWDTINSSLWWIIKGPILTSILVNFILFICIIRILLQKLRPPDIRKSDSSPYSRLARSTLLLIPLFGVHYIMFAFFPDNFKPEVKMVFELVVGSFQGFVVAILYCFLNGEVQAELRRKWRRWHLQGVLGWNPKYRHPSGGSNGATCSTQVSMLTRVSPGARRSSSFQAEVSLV
Excerpt: as §1

Q: For `Cn1nnnc1Cn1nnc2c(N3CC[C@H](O)C3)nc(C(C)(C)C)nc21` [RG7774, (S)-1-(5-tert-butyl-3-[(1-methyl-1H-tetrazol-5-yl)methyl]-3H-[1,2,3]triazolo[4,5-d]pyrimidin-7-yl)pyrrolidin-3-ol], which “% inhibition of control SB (n = 2)” value (5-HT7 (h)) is on record?
A: 3.9%

Q: And the “% inhibition of control SB (n = 2)” value (SKCa channel)?
A: 8.6%

Q: What about the “% inhibition of control SB (n = 2)” value (BB (non-selective)) of the same molecule?
A: –9.5%

Q: And the “% inhibition of control SB (n = 2)” value (M1 (h))?
A: –15.6%

Q: What about the “% inhibition of control SB (n = 2)” value (V1a (h)) of the same molecule?
A: 7.5%

Q: And the “% inhibition of control SB (n = 2)” value (BZD (peripheral))?
A: –12.0%

Q: And the “% inhibition of control SB (n = 2)” value (NK3 (h))?
A: 8.2%

Q: What about the “% inhibition of control SB (n = 2)” value (M4 (h)) of the same molecule?
A: –8.9%

Q: What about the “% inhibition of control SB (n = 2)” value (5-HT6 (h)) of the same molecule?
A: 3.5%

Q: What about the “% inhibition of control SB (n = 2)” value (D5) of the same molecule?
A: –2.0%

Q: And the “% inhibition of control SB (n = 2)” value (EP4 (h))?
A: –8.7%

Q: What about the “% inhibition of control SB (n = 2)” value (Cl- channel (GABA-gated)) of the same molecule?
A: 17.2%

Q: What about the “% inhibition of control SB (n = 2)” value (μ(MOP) (h)) of the same molecule?
A: –2.5%

Q: And the “% inhibition of control SB (n = 2)” value (5-HT transporter (h))?
A: 22.2%

Q: What about the “% inhibition of control SB (n = 2)” value (D1 (h)) of the same molecule?
A: –1.0%

Q: And the “% inhibition of control SB (n = 2)” value (CGRP (h))?
A: 1.7%

Q: What about the “% inhibition of control SB (n = 2)” value (D3 (h)) of the same molecule?
A: –0.3%

Q: What about the “% inhibition of control SB (n = 2)” value (H1 (h)) of the same molecule?
A: –8.8%

Q: What about the “% inhibition of control SB (n = 2)” value (D2S (h)) of the same molecule?
A: 12.0%

Q: What about the “% inhibition of control SB (n = 2)” value (δ(DOP) (h)) of the same molecule?
A: 4.7%

Q: And the “% inhibition of control SB (n = 2)” value (PCP)?
A: –4.4%

Q: What about the “% inhibition of control SB (n = 2)” value (sst (non-selective)) of the same molecule?
A: –22.2%

Q: And the “% inhibition of control SB (n = 2)” value (Dopamine transporter (h))?
A: 4.9%

Q: What about the “% inhibition of control SB (n = 2)” value (IP (PGI2) (h)) of the same molecule?
A: –3.8%

Q: What about the “% inhibition of control SB (n = 2)” value (CCR1) of the same molecule?
A: 5.6%

Q: And the “% inhibition of control SB (n = 2)” value (GR (h))?
A: 3.0%

Q: What about the “% inhibition of control SB (n = 2)” value (Beta 2 (h)) of the same molecule?
A: –1.3%

Q: And the “% inhibition of control SB (n = 2)” value (AT1 (h))?
A: –5.6%

Q: What about the “% inhibition of control SB (n = 2)” value (CCK2 (CCKB) (h)) of the same molecule?
A: –7.6%

Q: What about the “% inhibition of control SB (n = 2)” value (M5 (h)) of the same molecule?
A: –2.7%

Q: What about the “% inhibition of control SB (n = 2)” value (κ(KOP)) of the same molecule?
A: –12.7%

Q: And the “% inhibition of control SB (n = 2)” value (CXCR2)?
A: –7.7%

Q: What about the “% inhibition of control SB (n = 2)” value (NOP (ORL1) (h)) of the same molecule?
A: 2.7%

Q: What about the “% inhibition of control SB (n = 2)” value (PPARγ (h)) of the same molecule?
A: 1.7%

Q: What about the “% inhibition of control SB (n = 2)” value (5-HT3 (h)) of the same molecule?
A: 1.4%

Q: What about the “% inhibition of control SB (n = 2)” value (5-HT1A (h)) of the same molecule?
A: 3.6%

Q: And the “% inhibition of control SB (n = 2)” value (VPAC1 (VIP1) (h))?
A: 7.8%
